Results on 23 compounds are retold here after patent US9573961B2, “Inhibitors of the renal outer medullary potassium channel” (Merck Sharp & Dohme Corp., priority 2012, dated 2017).

SMILES strings stand for the structures. Where two headings read alike, the source gives them in different places.

One assay addresses Kir1.1 (ROMK1) (Homo sapiens (Human), UniProt P48048). The assay can be described thus: Electrophysiology Assay (whole cell voltage clamp, IonWorks Quattro). Type of assay: cell-based. Conditions: block during voltage step to 0 mV. The method in brief: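 CHO cells stably expressing the channel, induced overnight with 1 mM sodium butyrate, were recorded in amphotericin-perforated patch mode. The test pulse was a 100 ms step to 0 mV from −70 mV, then a −70 to +70 mV ramp, applied before and after a 6 min compound incubation. Current amplitudes were compared.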

The target of another assay is hROMK (hKir1.1) (Homo sapiens (Human), UniProt P48048). Kind of assay: Thallium Flux Assay (ROMK channel functional thallium flux, FLIPR-Tetra). Type of assay: cell-based. As to conditions: read-out: Thallium Flux IC50. The method in brief: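 HEK293 cells stably expressing hROMK loaded with FluxOR dye for 90 min, then incubated with compound for 30 min at 23-25 °C. Normalized to a 3 μM standard ROMK inhibitor as % fluorescence change.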
Sequence of hROMK (hKir1.1) (P48048 whole entry): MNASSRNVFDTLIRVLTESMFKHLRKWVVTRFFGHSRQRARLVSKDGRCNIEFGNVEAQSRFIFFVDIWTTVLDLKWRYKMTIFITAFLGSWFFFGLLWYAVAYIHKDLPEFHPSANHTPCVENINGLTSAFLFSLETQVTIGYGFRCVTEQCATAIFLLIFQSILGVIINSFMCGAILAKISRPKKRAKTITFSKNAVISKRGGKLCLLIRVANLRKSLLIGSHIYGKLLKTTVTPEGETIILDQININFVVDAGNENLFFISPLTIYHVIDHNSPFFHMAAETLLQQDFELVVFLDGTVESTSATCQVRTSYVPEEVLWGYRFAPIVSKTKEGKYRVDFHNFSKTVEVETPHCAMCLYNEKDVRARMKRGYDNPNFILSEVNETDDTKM

The mark [1] stands for this setting: Electrophysiology IC50, Chinese hamster ovary cells stably expressing Kir1.1.
[2] abbreviates: HEK293 cells stably expressing hROMK (hKir1.1).
Where [3] appears, read: Chinese hamster ovary cells stably expressing Kir1.1, read-out: Electrophysiology IC50.

Sequence of Kir1.1 (ROMK1) (P48048 whole entry): as above

Usually IC50 stands for the concentration at which inhibition is half-maximal. Take `Cc1c(C2CN3CCCN(C(=O)Cc4ccc(-n5cnnn5)cc4)CC3CO2)ccc2c1COC2=O` (stereo not shown) [Example 50, 4-methyl-5-(9-{[4-(1H-tetrazol-1-yl)phenyl]acetyl}octahydro-1H-[1,4]oxazino[4,3-a][1,4]diazepin-3-yl)-2-benzofuran-1(3H)-one]: the concentration for half-maximal inhibition (IC50) against Kir1.1 (ROMK1) (setting [1]) came to 0.18 µM; on hROMK (hKir1.1) (setting [2]), 0.74 µM.

On to `Cc1c([C@@H]2CN3CCN(C(=O)Cc4c(F)cc(-n5cnnn5)cc4F)C[C@H]3CO2)ccc(F)c1C#N` [Example 52, 3-[(3R,9aS)-8-{[2,6-difluoro-4-(1H-tetrazol-1-yl)phenyl]acetyl}octahydropyrazino[2,1-c][1,4]oxazin-3-yl]-6-fluoro-2-methylbenzonitrile], for which the results for the IC50 on Kir1.1 (ROMK1) (setting [3]) and at hROMK (hKir1.1) (setting [2]) were 0.07 µM and 0.17 µM, respectively.

`Cc1c([C@@H]2CN3CCN(C(=O)Cc4c(F)cc(-n5cnnn5)cc4F)C[C@@H]3CO2)ccc(F)c1C#N` [Example 53, 3-[(3R,9aR)-8-{[2,6-difluoro-4-(1H-tetrazol-1-yl)phenyl]acetyl}octahydropyrazino[2,1-c][1,4]oxazin-3-yl]-6-fluoro-2-methylbenzonitrile]: the IC50 came out at 0.11 µM on Kir1.1 (ROMK1) (setting [3]) and 0.18 µM at hROMK (hKir1.1) (setting [2]).

Regarding `Cc1c([C@@H]2CN3CCN(C(=O)Cc4cc(F)c(-n5cnnn5)cc4F)C[C@@H]3CO2)ccc(F)c1C#N` [Example 54, 3-[(3R,9aR)-8-{[2,5-difluoro-4-(1H-tetrazol-1-yl)phenyl]acetyl}octahydropyrazino[2,1-c][1,4]oxazin-3-yl]-6-fluoro-2-methylbenzonitrile], the half-inhibitory concentration (IC50) on Kir1.1 (ROMK1) (setting [1]) and at hROMK (hKir1.1) was 0.1 µM each time.

As to `Cc1c([C@@H]2CN3CCN(C(=O)Cc4cc(F)c(-n5cnnn5)cc4F)C[C@H]3CO2)ccc(F)c1C#N` [Example 55, 3-[(3R,9aS)-8-{[2,5-difluoro-4-(1H-tetrazol-1-yl)phenyl]acetyl}octahydropyrazino[2,1-c][1,4]oxazin-3-yl]-6-fluoro-2-methylbenzonitrile], the IC50 came out at 0.1 µM at Kir1.1 (ROMK1) (setting [1]) and 0.13 µM on hROMK (hKir1.1) (setting [2]).

Regarding `Cc1c([C@@H]2CN3CCN(C(=O)Cc4cccc(-n5cnnn5)c4)C[C@@H]3CO2)ccc(F)c1C#N` [Example 56, 6-fluoro-2-methyl-3-[(3R,9aR)-8-{[3-(1H-tetrazol-1-yl)phenyl]acetyl}octahydropyrazino[2,1-c][1,4]oxazin-3-yl]benzonitrile], the IC50 on Kir1.1 (ROMK1) (setting [3]) amounted to 0.06 µM; at hROMK (hKir1.1) (setting [2]), 0.2 µM.

Take `Cc1c([C@H]2CN3CCN(C(=O)Cc4cccc(-n5cnnn5)c4)C[C@@H]3CO2)ccc(F)c1C#N` [Example 57, 6-fluoro-2-methyl-3-[(3S,9aR)-8-{[3-(1H-tetrazol-1-yl)phenyl]acetyl}octahydropyrazino[2,1-c][1,4]oxazin-3-yl]benzonitrile]: the values for the IC50 at Kir1.1 (ROMK1) (setting [3]) and on hROMK (hKir1.1) (setting [2]) were 0.05 µM and 0.14 µM, respectively.

With `Cc1c([C@H]2CN3CCN(C(=O)Cc4cc(-n5cnnn5)ccc4F)C[C@@H]3CO2)ccc(F)c1C#N` [Example 58, 6-fluoro-3-[(3S,9aR)-8-{[2-fluoro-5-(1H-tetrazol-1-yl)phenyl]acetyl}octahydropyrazino[2,1-c][1,4]oxazin-3-yl]-2-methylbenzonitrile], the results for the concentration for half-maximal inhibition (IC50) on Kir1.1 (ROMK1) (setting [3]) and at hROMK (hKir1.1) (setting [2]) were 0.08 µM and 0.18 µM, respectively.

For `Cc1c([C@@H]2CN3CCN(C(=O)Cc4cc(-n5cnnn5)ccc4F)C[C@@H]3CO2)ccc(F)c1C#N` [Example 59, 6-fluoro-3-[(3R,9aR)-8-{[2-fluoro-5-(1H-tetrazol-1-yl)phenyl]acetyl}octahydropyrazino[2,1-c][1,4]oxazin-3-yl]-2-methylbenzonitrile], the IC50 at Kir1.1 (ROMK1) (setting [3]) was determined as 0.14 µM; on hROMK (hKir1.1) (setting [2]) it was 0.36 µM.

Take `Cc1c(CC(=O)N2CCN3C[C@@H](c4ccc(F)c(C#N)c4C)OC[C@H]3C2)cccc1-n1cnnn1` [Example 60, 6-fluoro-2-methyl-3-[(3R,9aR)-8-{[2-methyl-3-(1H-tetrazol-1-yl)phenyl]acetyl}octahydropyrazino[2,1-c][1,4]oxazin-3-yl]benzonitrile]: the results for the IC50 at Kir1.1 (ROMK1) (setting [3]) and at hROMK (hKir1.1) (setting [2]) were 0.42 µM and 0.44 µM, respectively.

In the case of `Cc1c(CC(=O)N2CCN3C[C@H](c4ccc(F)c(C#N)c4C)OC[C@H]3C2)cccc1-n1cnnn1` [Example 61, 6-fluoro-2-methyl-3-[(3S,9aR)-8-{[2-methyl-3-(1H-tetrazol-1-yl)phenyl]acetyl}octahydropyrazino[2,1-c][1,4]oxazin-3-yl]benzonitrile], the IC50 is 0.24 µM on Kir1.1 (ROMK1) (setting [3]) and 0.34 µM on hROMK (hKir1.1) (setting [2]).

As for `COc1ccc([C@H]2CN3CCN(C(=O)C4CCc5cc(-n6cnnn6)ccc54)C[C@H]3CO2)c(C)c1C#N` (stereo partly drawn) [Example 62, 6-methoxy-2-methyl-3-[(3S,9aS)-8-{[5-(1H-tetrazol-1-yl)-2,3-dihydro-1H-inden-1-yl]carbonyl}octahydropyrazino[2,1-c][1,4]oxazin-3-yl]benzonitrile], the IC50 at Kir1.1 (ROMK1) (setting [3]) was determined as 0.65 µM; at hROMK (hKir1.1) (setting [2]) it was 0.2 µM.

For `COc1ccc([C@@H]2CN3CCN(C(=O)C4CCc5cc(-n6cnnn6)ccc54)C[C@H]3CO2)c(C)c1C#N` (stereo partly drawn) [Example 63, 6-methoxy-2-methyl-3-[(3R,9aS)-8-{[5-(1H-tetrazol-1-yl)-2,3-dihydro-1H-inden-1-yl]carbonyl}octahydropyrazino[2,1-c][1,4]oxazin-3-yl]benzonitrile], the IC50 stood at 0.45 µM at Kir1.1 (ROMK1) (setting [3]) and 0.18 µM at hROMK (hKir1.1) (setting [2]).

Regarding `COc1cc([C@@H]2CN3CCN(C(=O)C4CCc5cc(-n6cnnn6)ccc54)C[C@@H]3CO2)ccc1C#N` (stereo partly drawn) [Example 64, 2-methoxy-4-[(3R,9aR)-8-{[5-(1H-tetrazol-1-yl)-2,3-dihydro-1H-inden-1-yl]carbonyl}octahydropyrazino[2,1-c][1,4]oxazin-3-yl]benzonitrile], the concentration for half-maximal inhibition (IC50) on Kir1.1 (ROMK1) (setting [3]) came out at 0.21 µM; on hROMK (hKir1.1) (setting [2]) it was 0.27 µM.

As for `COc1cc([C@@H]2CN3CCN(C(=O)C4CCc5cc(-n6cnnn6)ccc54)C[C@H]3CO2)ccc1C#N` (stereo partly drawn) [Example 65, 2-methoxy-4-[(3R,9aS)-8-{[5-(1H-tetrazol-1-yl)-2,3-dihydro-1H-inden-1-yl]carbonyl}octahydropyrazino[2,1-c][1,4]oxazin-3-yl]benzonitrile], the values for the IC50 on Kir1.1 (ROMK1) (setting [3]) and on hROMK (hKir1.1) (setting [2]) were 0.35 µM and 0.4 µM, respectively.

In the case of `Cc1c([C@@H]2CN3CCN(C(=O)Cc4ccc(-n5cnnn5)cc4C#N)C[C@H]3CO2)ccc(F)c1C#N` [Example 67, 3-[(3R,9aS)-8-{[2-cyano-4-(1H-tetrazol-1-yl)phenyl]acetyl}octahydropyrazino[2,1-c][1,4]oxazin-3-yl]-6-fluoro-2-methylbenzonitrile], the IC50 was 0.17 µM against Kir1.1 (ROMK1) (setting [1]) and 0.13 µM at hROMK (hKir1.1) (setting [2]).

With `Cc1c([C@@H]2CN3CCN(C(=O)Cc4ccc(-n5cnnn5)cc4C#N)C[C@@H]3CO2)ccc(F)c1C#N` [Example 68, 3-[(3R,9aR)-8-{[2-cyano-4-(1H-tetrazol-1-yl)phenyl]acetyl}octahydropyrazino[2,1-c][1,4]oxazin-3-yl]-6-fluoro-2-methylbenzonitrile], the IC50 is 0.12 µM at Kir1.1 (ROMK1) (setting [1]) and 0.21 µM on hROMK (hKir1.1) (setting [2]).

Turning to `Cc1c([C@@H]2CN3CCN(C(=O)Cc4ccc(-n5cnnn5)cc4Cl)C[C@@H]3CO2)ccc(F)c1C#N` [Example 69, 3-[(3R,9aR)-8-{[2-chloro-4-(1H-tetrazol-1-yl)phenyl]acetyl}octahydropyrazino[2,1-c][1,4]oxazin-3-yl]-6-fluoro-2-methylbenzonitrile], the values for the IC50 on Kir1.1 (ROMK1) (setting [1]) and on hROMK (hKir1.1) were 0.11 µM and 0.1 µM, respectively.

For the compound `Cc1c([C@@H]2CN3CCN(C(=O)Cc4ccc(-n5cnnn5)cc4Cl)C[C@H]3CO2)ccc(F)c1C#N` [Example 70, 3-[(3R,9aS)-8-{[2-chloro-4-(1H-tetrazol-1-yl)phenyl]acetyl}octahydropyrazino[2,1-c][1,4]oxazin-3-yl]-6-fluoro-2-methylbenzonitrile], the IC50 came out at 0.16 µM at Kir1.1 (ROMK1) (setting [1]) and 0.25 µM at hROMK (hKir1.1) (setting [2]).

In the case of `Cc1c([C@H]2CN3CCN(C(=O)Cc4ccc(-n5cnnn5)cc4)C[C@H]3CO2)ccc2nonc12` [Example 75, (3S,9aS)-3-(4-methyl-2,1,3-benzoxadiazol-5-yl)-8-{[4-(1H-tetrazol-1-yl)phenyl]acetyl}octahydropyrazino[2,1-c][1,4]oxazine], the half-inhibitory concentration (IC50) at Kir1.1 (ROMK1) (setting [3]) was determined as 0.12 µM; at hROMK (hKir1.1) (setting [2]), 0.21 µM.

`Cc1c([C@@H]2CN3CCN(C(=O)Cc4ccc(-n5cnnn5)cc4)C[C@H]3CO2)ccc2nonc12` [Example 76, (3R,9aS)-3-(4-methyl-2,1,3-benzoxadiazol-5-yl)-8-{[4-(1H-tetrazol-1-yl)phenyl]acetyl}octahydropyrazino[2,1-c][1,4]oxazine]: the half-inhibitory concentration (IC50) on Kir1.1 (ROMK1) (setting [3]) and at hROMK (hKir1.1) (setting [2]) was 0.22 µM throughout.

For `O=C(Cc1ccc(-n2cnnn2)cc1)N1CCN2C[C@@H](c3ccc4nonc4c3)OC[C@@H]2C1` [Example 77, (3R,9aS)-3-(2,1,3-benzoxadiazol-5-yl)-8-{[4-(1H-tetrazol-1-yl)phenyl]acetyl}octahydropyrazino[2,1-c][1,4]oxazine], the IC50 at Kir1.1 (ROMK1) (setting [1]) worked out at 0.05 µM; on hROMK (hKir1.1) (setting [2]), 0.15 µM.

Turning to `O=C(C1CCc2cc(-n3cnnn3)ccc21)N1CCN2C[C@@H](c3ccc4nonc4c3)OC[C@@H]2C1` (stereo partly drawn) [Example 78, (3R,9aS)-3-(2,1,3-benzoxadiazol-5-yl)-8-{[5-(1H-tetrazol-1-yl)-2,3-dihydro-1H-inden-1-yl]carbonyl}octahydropyrazino[2,1-c][1,4]oxazine], the IC50 at Kir1.1 (ROMK1) (setting [3]) was determined as 0.1 µM; at hROMK (hKir1.1) (setting [2]), 0.21 µM.
